How the values were obtained:
bedstraw = experiment: Test B pre/postemergence bedstraw; assay type: in vivo, Galium aparine
Method in brief: (§1)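 Response is a visual 0-to-10 score relative to untreated plants, where 0 means no effect and 10 means complete control, taken twelve to sixteen days after application. Treatments went onto soil at planting and onto foliage of 1- to 4-leaf plants, using a surfactant-containing non-phytotoxic solvent.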

blackgrass = experiment: Test B pre/postemergence blackgrass; assay type: in vivo, Alopecurus myosuroides
From the text: (§2) Seeds of bedstraw (Galium aparine), blackgrass (Alopecurus myosuroides), surinam grass (Brachiaria decumbens), cocklebur (Xanthium strumarium), corn (Zea mays), crabgrass (Digitaria sanguinalis), giant foxtail (Setaria faberii), morningglory (Ipomoea hederacea), pigweed (Amaranthus retroflexus), rape (Brassica napus), soybean (Glycine max), sugar beet (Beta vulgaris), velvetleaf (Abutilon theophrasti), wheat (Triticum aestivum), wild oat (Avena fatua) and purple nutsedge (Cyperus rotundus) tubers were planted and treated preemnergence with test chemicals formulated in a non-phytotoxic solvent mixture which included a surfactant.
(§3) At the same time, these crop and weed species were also treated with postemergence applications of test chemicals formulated in the same manner. Plants ranged in height from 2 to 18 cm (1- to 4-leaf stage) for postemergence treatments. Plant species in the flood test consisted of rice (Oryza sativa), smallflower flatsedge (Cyperus difformis), duck salad (Heteranthera limosa) and bamyardgrass (Echinochloa crus-galli) grown to the 2-leaf stage for testing. Treated plants and controls were maintained in a greenhouse for twelve to sixteen days, after which all species were compared to controls and visually evaluated. Plant response ratings, summarized in Table B, are based on a scale of 0 to 10 where 0 is no effect and 10 is complete control. A dash (−) response means no test result.

surinam grass = experiment: Test B pre/postemergence surinam grass; assay type: in vivo, Brachiaria decumbens
Method in brief: as §1

cocklebur = experiment: Test B pre/postemergence cocklebur; assay type: in vivo, Xanthium strumarium
Method in brief: as §1

corn = experiment: Test B pre/postemergence corn; assay type: in vivo, Zea mays
Method in brief: as §1

crabgrass = experiment: Test B pre/postemergence crabgrass; assay type: in vivo, Digitaria sanguinalis
Method in brief: as §1

giant foxtail = experiment: Test B pre/postemergence giant foxtail; assay type: in vivo, Setaria faberii
Method in brief: as §1

morningglory = experiment: Test B pre/postemergence morningglory; assay type: in vivo, Ipomoea hederacea
Method in brief: as §1

pigweed = experiment: Test B pre/postemergence pigweed; assay type: in vivo, Amaranthus retroflexus
From the text: as §2, §3

rape = experiment: Test B pre/postemergence rape; assay type: in vivo, Brassica napus
Method in brief: as §1

soybean = experiment: Test B pre/postemergence soybean; assay type: in vivo, Glycine max
Method in brief: as §1

sugar beet = experiment: Test B pre/postemergence sugar beet; assay type: in vivo, Beta vulgaris
Method in brief: as §1

velvetleaf = experiment: Test B pre/postemergence velvetleaf; assay type: in vivo, Abutilon theophrasti
Method in brief: as §1

wheat = experiment: Test B pre/postemergence wheat; assay type: in vivo, Triticum aestivum
Method in brief: as §1

wild oat = experiment: Test B pre/postemergence wild oat; assay type: in vivo, Avena fatua
Method in brief: as §1

purple nutsedge = experiment: Test B pre/postemergence purple nutsedge; assay type: in vivo, Cyperus rotundus
Method in brief: as §1

[1] = Postemergence, Rate 125 g/ha, scale of 0 to 10 where 0 is no effect and 10 is complete control
[2] = Preemergence, Rate 62 g/ha, scale of 0 to 10 where 0 is no effect and 10 is complete control
[3] = Preemergence, Rate 125 g/ha, 0 is no effect, 10 is complete control
[4] = Preemergence, Rate 250 g/ha, scale 0 to 10, 0 is no effect, 10 is complete control
[5] = Preemergence, Rate 500 g/ha, scale 0 to 10 (0 no effect, 10 complete control)
[6] = Rate 62 g/ha, Postemergence, scale of 0 to 10 where 0 is no effect and 10 is complete control
[7] = Rate 250 g/ha, Postemergence, scale 0 to 10, 0 is no effect, 10 is complete control
[8] = Rate 500 g/ha, Postemergence, scale 0 to 10

SMILES: CC(C)N(C(=O)n1oc(=O)n([C@H](C)c2ccccc2)c1=O)c1ccc(Cl)cc1 [Compound 178]
- Bedstraw plant response rating (bedstraw; [1]): 0
- Bedstraw plant response rating (bedstraw; [2]): 0
- Bedstraw plant response rating (0 to 10 scale) (bedstraw; [3]): 0
- Bedstraw plant response rating (bedstraw; [4]): 0
- Bedstraw plant response rating (bedstraw; [5]): 0
- Bedstraw plant response rating (bedstraw; [6]): 0
- Plant response rating, Bedstraw (bedstraw; [7]): 0
- Bedstraw plant response rating (bedstraw; [8]): 0
- Blackgrass plant response rating (blackgrass; [1]): 0
- Blackgrass plant response rating (blackgrass; [2]): 0
- Blackgrass plant response rating (0 to 10 scale) (blackgrass; [3]): 0
- Blackgrass plant response rating (blackgrass; [4]): 0
- Blackgrass plant response rating (blackgrass; [5]): 3
- Blackgrass plant response rating (blackgrass; [6]): 0
- Plant response rating, Blackgrass (blackgrass; [7]): 0
- B. signalgrass plant response rating (surinam grass; [1]): 0
- B. signalgrass plant response rating (surinam grass; [2]): 6
- B. signalgrass plant response rating (0 to 10 scale) (surinam grass; [3]): 7
- B. signalgrass plant response rating (surinam grass; [4]): 8
- B. signalgrass plant response rating (surinam grass; [5]): 9
- B. signalgrass plant response rating (surinam grass; [6]): 0
- Plant response rating, B. signalgrass (surinam grass; [7]): 0
- B. signalgrass plant response rating (surinam grass; Rate 500 g/ha, Postemergence, scale 0 to 10, 0 no effect, 10 complete control): 2
- Cocklebur plant response rating (cocklebur; [1]): 0
- Cocklebur plant response rating (cocklebur; [2]): 0
- Cocklebur plant response rating (0 to 10 scale) (cocklebur; [3]): 0
- Cocklebur plant response rating (cocklebur; [4]): 0
- Cocklebur plant response rating (cocklebur; [5]): 0
- Cocklebur plant response rating (cocklebur; [6]): 0
- Plant response rating, Cocklebur (cocklebur; [7]): 0
- Cocklebur plant response rating (cocklebur; [8]): 0
- Corn plant response rating (corn; [1]): 0
- Corn plant response rating (corn; [2]): 0
- Corn plant response rating (0 to 10 scale) (corn; [3]): 0
- Corn plant response rating (corn; [4]): 0
- Corn plant response rating (corn; [5]): 0
- Corn plant response rating (corn; [6]): 0
- Plant response rating, Corn (corn; [7]): 0
- Corn plant response rating (corn; [8]): 0
- Crabgrass plant response rating (crabgrass; [1]): 0
- Crabgrass plant response rating (crabgrass; [2]): 0
- Crabgrass plant response rating (0 to 10 scale) (crabgrass; [3]): 2
- Crabgrass plant response rating (crabgrass; [4]): 8
- Crabgrass plant response rating (crabgrass; [5]): 9
- Crabgrass plant response rating (crabgrass; [6]): 0
- Plant response rating, Crabgrass (crabgrass; [7]): 0
- Crabgrass plant response rating (crabgrass; [8]): 2
- Giant foxtail plant response rating (giant foxtail; [1]): 0
- Giant foxtail plant response rating (giant foxtail; [2]): 4
- Giant foxtail plant response rating (0 to 10 scale) (giant foxtail; [3]): 4
- Giant foxtail plant response rating (giant foxtail; [4]): 8
- Giant foxtail plant response rating (giant foxtail; [5]): 9
- Giant foxtail plant response rating (giant foxtail; [6]): 0
- Plant response rating, Giant foxtail (giant foxtail; [7]): 0
- Giant foxtail plant response rating (giant foxtail; [8]): 2
- Morningglory plant response rating (morningglory; [1]): 2
- Morningglory plant response rating (morningglory; [2]): 0
- Morningglory plant response rating (0 to 10 scale) (morningglory; [3]): 0
- Morningglory plant response rating (morningglory; [4]): 0
- Morningglory plant response rating (morningglory; [5]): 0
- Morningglory plant response rating (morningglory; [6]): 2
- Plant response rating, Morningglory (morningglory; [7]): 2
- Morningglory plant response rating (morningglory; [8]): 3
- Redroot pigweed plant response rating (pigweed; [1]): 7
- Redroot pigweed plant response rating (pigweed; [2]): 0
- Redroot pigweed plant response rating (0 to 10 scale) (pigweed; [3]): 0
- Redroot pigweed plant response rating (pigweed; [4]): 6
- Redroot pigweed plant response rating (pigweed; [5]): 10
- Redroot pigweed plant response rating (pigweed; [6]): 0
- Redroot pigweed plant response rating (pigweed; [8]): 7
- Rape plant response rating (rape; [1]): 0
- Rape plant response rating (rape; [2]): 0
- Rape plant response rating (0 to 10 scale) (rape; [3]): 0
- Rape plant response rating (rape; [4]): 0
- Rape plant response rating (rape; [5]): 0
- Rape plant response rating (rape; [6]): 0
- Plant response rating, Rape (rape; [7]): 0
- Rape plant response rating (rape; [8]): 0
- Soybean plant response rating (soybean; [1]): 1
- Soybean plant response rating (soybean; [2]): 0
- Soybean plant response rating (0 to 10 scale) (soybean; [3]): 0
- Soybean plant response rating (soybean; [4]): 0
- Soybean plant response rating (soybean; [5]): 0
- Soybean plant response rating (soybean; [6]): 1
- Plant response rating, Soybean (soybean; [7]): 2
- Soybean plant response rating (soybean; [8]): 2
- Sugarbeets plant response rating (sugar beet; [1]): 0
- Sugarbeets plant response rating (sugar beet; [2]): 0
- Sugarbeets plant response rating (0 to 10 scale) (sugar beet; [3]): 0
- Sugarbeets plant response rating (sugar beet; [4]): 0
- Sugarbeets plant response rating (sugar beet; [5]): 0
- Sugarbeets plant response rating (sugar beet; [6]): 0
- Plant response rating, Sugarbeets (sugar beet; [7]): 0
- Sugarbeets plant response rating (sugar beet; [8]): 0
- Velvetleaf plant response rating (velvetleaf; [2]): 0
- Velvetleaf plant response rating (0 to 10 scale) (velvetleaf; [3]): 0
- Velvetleaf plant response rating (velvetleaf; [4]): 0
- Velvetleaf plant response rating (velvetleaf; [5]): 0
- Plant response rating, Velvetleaf (velvetleaf; [7]): 0
- Velvetleaf plant response rating (velvetleaf; [8]): 0
- Wheat plant response rating (wheat; [2]): 0
- Wheat plant response rating (0 to 10 scale) (wheat; [3]): 0
- Wheat plant response rating (wheat; [4]): 0
- Wheat plant response rating (wheat; [5]): 0
- Plant response rating, Wheat (wheat; [7]): 0
- Wheat plant response rating (wheat; [8]): 2
- Wild oats plant response rating (wild oat; [2]): 0
- Wild oats plant response rating (0 to 10 scale) (wild oat; [3]): 0
- Wild oats plant response rating (wild oat; [4]): 0
- Wild oats plant response rating (wild oat; [5]): 3
- Plant response rating, Wild oats (wild oat; [7]): 0
- Wild oats plant response rating (wild oat; [8]): 0
- Nutsedge plant response rating (purple nutsedge; [1]): 0
- Nutsedge plant response rating (purple nutsedge; [2]): 0
- Nutsedge plant response rating (0 to 10 scale) (purple nutsedge; [3]): 0
- Nutsedge plant response rating (purple nutsedge; [4]): 0
- Nutsedge plant response rating (purple nutsedge; [5]): 0
- Nutsedge plant response rating (purple nutsedge; [6]): 0
- Plant response rating, Nutsedge (purple nutsedge; [7]): 0
- Nutsedge plant response rating (purple nutsedge; [8]): 0

Reference: patent US6737383B1, “Herbicidal oxadiazolidines” (priority 1999, dated 2004)
